US12052991B2, “Substituted pyridinyloxybenzenes and salts thereof and use thereof as herbicidal agents” (Bayer Aktiengesellschaft, priority 2018, dated 2024)

Key:
Format in all cases: in vivo
[1] = tested on: Abutilon theophrasti (ABUTH); experiment: Herbicidal post-emergence action (Table B5); settings: rated visually after about 3 weeks, 100% = plants have died, 0% = like control plants
Protocol: (§1) Seeds of mono- and dicotyledonous weed plants were placed in plastic pots in sandy loam soil (doubly sown with in each case one species of mono- or dicotyledonous weed plants per pot), covered with soil and cultivated in a greenhouse under controlled growth conditions. 2 to 3 weeks after sowing, the test plants were treated at the one-leaf stage. The compounds of the invention, formulated in the form of wettable powders (WP) or as emulsion concentrates (EC), were applied onto the green parts of the plants as aqueous suspension or emulsion with addition of 0.5% additive at a water application rate of 600 liters per hectare (converted). After the test plants had been kept in the greenhouse under optimum growth conditions for about 3 weeks, the activity of the preparations was rated visually in comparison to untreated controls. For example, 100% activity=the plants have died, 0% activity=like control plants. Tables B1 to B12 below show the effects of selected compounds of the general formula (I) according to Table 1 on various harmful plants and an application rate corresponding to 1280 or 320 g/ha, which were obtained by the experimental procedure mentioned above.

[2] = tested on: Stellaria media (STEME); experiment: Herbicidal post-emergence action (Table B8); settings: visual rating about 3 weeks after treatment, 100% = plants have died, 0% = like control plants
Protocol: as §1

[3] = tested on: Digitaria sanguinalis (DIGSA); experiment: Herbicidal post-emergence action (Table B10); settings: dosage 1280 g/ha; visual rating about 3 weeks after treatment; 100% = plants have died, 0% = like control plants
Protocol: as §1

[4] = tested on: Poa annua (POAAN); experiment: Herbicidal pre-emergence action, test C (Table C3); settings: visual scoring after about 3 weeks, 100% = plants have died, 0% = like control plants
Description: (§2) Seeds of mono- and dicotyledonous weed plants were placed in plastic pots in sandy loam soil (doubly sown with one species each of mono- or dicotyledonous weed plants per pot) and covered with soil. The compounds of the invention, formulated in the form of wettable powders (WP) or as emulsion concentrates (EC), were then applied onto the surface of the covering soil as aqueous suspension or emulsion with addition of 0.5% additive at a water application rate of 600 liters per hectare (converted). After the treatment, the pots were placed in a greenhouse and kept under good growth conditions for the test plants. After about 3 weeks, the effect of the preparations was scored visually in comparison with untreated controls as percentages. For example, 100% activity=the plants have died, 0% activity=like control plants. Tables C1 to C12 below show the effects of selected compounds of the general formula (I) according to Table 1 on various harmful plants and an application rate corresponding to 1280 or 320 g/ha, which were obtained by the experimental procedure mentioned above.

[5] = tested on: Setaria viridis (SETVI); experiment: Herbicidal pre-emergence action, test C (Table C4); settings: visual scoring after about 3 weeks, 100% = plants have died, 0% = like control plants
Description: as §2

[6] = tested on: Abutilon theophrasti (ABUTH); experiment: Herbicidal pre-emergence action, test C (Table C5); settings: dosage 1280 g/ha; visual scoring after about 3 weeks; 100% = plants have died, 0% = like control plants
Description: as §2

[7] = tested on: Amaranthus retroflexus (AMARE); experiment: Herbicidal pre-emergence action, test C (Table C6); settings: visual scoring after about 3 weeks, 100% = plants have died, 0% = like control plants
Description: as §2

[8] = tested on: Matricaria inodora (MATIN); experiment: Herbicidal pre-emergence action, test C (Table C7); settings: dosage 1280 g/ha; visual scoring after about 3 weeks; 100% = plants have died, 0% = like control plants
Description: as §2

[9] = tested on: Stellaria media (STEME); experiment: Herbicidal pre-emergence action, test C (Table C8); settings: visual scoring after about 3 weeks, 100% = plants have died, 0% = like control plants
Description: as §2

[10] = tested on: Veronica persica (VERPE); experiment: Herbicidal pre-emergence action, test C (Table C12); settings: dosage 1280 g/ha, visual scoring vs untreated controls
Description: as §2

[11] = tested on: harmful plants ABUTH, AMARE, ECHCG, LOLRI, MATIN, POAAN, SETVI, STEME, ALOMY, DIGSA, KCHSC and VERPE; experiment: Herbicidal post-emergence action, summary of Tables B1-B12; settings: application rate of 1280 or 320 g of active ingredient per hectare; summary in words
Protocol: as §1, with “controls.” for “controls. For example, 100% activity=the plants have died, 0% activity=like control plants. Tables B1 to B12 below show the effects of selected compounds of the general formula (I) according to Table 1 on various harmful plants and an application rate corresponding to 1280 or 320 g/ha, which were obtained by the experimental procedure mentioned above.”
(§3) For example, 100% activity=the plants have died, 0% activity=like control plants.
Tables B1 to B12 below show the effects of selected compounds of the general formula (I) according to Table 1 on various harmful plants and an application rate corresponding to 1280 or 320 g/ha, which were obtained by the experimental procedure mentioned above.
As the results of Tables B1-B12 show, compounds no.

[12] = tested on: harmful plants ABUTH, AMARE, ECHCG, LOLRI, MATIN, POAAN, SETVI, STEME, ALOMY, DIGSA, KCHSC and VERPE; experiment: Herbicidal pre-emergence action (test C), summary of Tables C1-C12; settings: application rate of 1280 or 320 g of active ingredient per hectare; summary in words
Description: as §2, with “percentages.” for “percentages. For example, 100% activity=the plants have died, 0% activity=like control plants. Tables C1 to C12 below show the effects of selected compounds of the general formula (I) according to Table 1 on various harmful plants and an application rate corresponding to 1280 or 320 g/ha, which were obtained by the experimental procedure mentioned above.”
as §3
Tables C1 to C12 below show the effects of selected compounds of the general formula (I) according to Table 1 on various harmful plants and an application rate corresponding to 1280 or 320 g/ha, which were obtained by the experimental procedure mentioned above.
As the results of Tables C1-C12 show, compounds no.

[13] = tested on: Bassia scoparia (KCHSC); experiment: Herbicidal post-emergence action (Table B11); settings: dosage 1280 g/ha; visual rating about 3 weeks after treatment; 100% = plants have died, 0% = like control plants
Protocol: as §1

[14] = tested on: Veronica persica (VERPE); experiment: Herbicidal post-emergence action (Table B12); settings: visual rating about 3 weeks after treatment, 100% = plants have died, 0% = like control plants
Protocol: as §1

[15] = tested on: Echinochloa crus-galli (ECHCG); experiment: Herbicidal post-emergence action (Table B1); settings: 1280 g/ha; rated visually after about 3 weeks; 100% = plants have died, 0% = like control plants
Protocol: as §1

[16] = tested on: Poa annua (POAAN); experiment: Herbicidal post-emergence action (Table B3); settings: rated visually after about 3 weeks, 100% = plants have died, 0% = like control plants
Protocol: as §1

[17] = tested on: Amaranthus retroflexus (AMARE); experiment: Herbicidal post-emergence action (Table B6); settings: visual rating about 3 weeks after treatment, 100% = plants have died, 0% = like control plants
Protocol: as §1

[18] = tested on: Digitaria sanguinalis (DIGSA); experiment: Herbicidal pre-emergence action, test C (Table C10); settings: dosage 1280 g/ha; visual scoring after about 3 weeks; 100% = plants have died, 0% = like control plants
Description: as §2

[19] = tested on: Alopecurus myosuroides (ALOMY); experiment: Herbicidal post-emergence action (Table B9); settings: 1280 g/ha; rated visually after about 3 weeks; 100% = plants have died, 0% = like control plants
Protocol: as §1

Compound	Post-emergence action against Abutilon theophrasti (ABUTH) ([1]; 1280 g/ha) [%]	Post-emergence action against Stellaria media (STEME) ([2]; dosage 1280 g/ha) [%]	Post-emergence action against Digitaria sanguinalis (DIGSA) [3] [%]	Pre-emergence action against Poa annua (POAAN) ([4]; dosage 1280 g/ha) [%]	Pre-emergence action against Setaria viridis (SETVI) ([5]; dosage 1280 g/ha) [%]	Pre-emergence action against Amaranthus retroflexus (AMARE) ([7]; dosage 320 g/ha) [%]	Pre-emergence action against Amaranthus retroflexus (AMARE) ([7]; dosage 1280 g/ha) [%]	Pre-emergence action against Matricaria inodora (MATIN) [8] [%]	Pre-emergence action against Stellaria media (STEME) ([9]; dosage 320 g/ha) [%]	Pre-emergence action against Stellaria media (STEME) ([9]; dosage 1280 g/ha) [%]	Pre-emergence action against Veronica persica (VERPE) [10] [%]	herbicidal activity against the harmful plants of Tables B1-B12 in post-emergence treatment [11]	herbicidal activity against the harmful plants of Tables C1-C12 in pre-emergence treatment [12]	Post-emergence action against Stellaria media (STEME) ([2]; dosage 320 g/ha) [%]	Post-emergence action against Bassia scoparia (KCHSC) [13] [%]	Post-emergence action against Veronica persica (VERPE) ([14]; dosage 320 g/ha) [%]	Post-emergence action against Veronica persica (VERPE) ([14]; dosage 1280 g/ha) [%]	Post-emergence action against Poa annua (POAAN) ([16]; 320 g/ha) [%]	Post-emergence action against Amaranthus retroflexus (AMARE) ([17]; dosage 1280 g/ha) [%]	Pre-emergence action against Digitaria sanguinalis (DIGSA) [18] [%]	also measured
Cc1ccc(-c2cc(C(F)F)no2)c(Oc2ccccn2)c1 [Example 1-25]	90	100	100	90	100	100	100	90	90	100	90	very good herbicidal activity	very good herbicidal activity	–	–	–	–	–	–	–	Pre-emergence action against Setaria viridis (SETVI) ([5]; dosage 320 g/ha): 100%; Pre-emergence action against Abutilon theophrasti (ABUTH) [6]: 100%
Cc1ccc(-c2cc(C(F)F)no2)c(Oc2ncc(Cl)cc2F)c1 [Example 1-27]	90	100	–	–	–	–	90	–	–	90	100	very good herbicidal activity	very good herbicidal activity	100	90	100	100	–	–	–	–
COc1ccc(-c2cc(C(F)F)no2)c(Oc2ccc(Cl)cn2)c1 [Example 1-39]	90	100	–	100	90	100	100	90	100	100	100	very good herbicidal activity	very good herbicidal activity	100	–	100	100	100	100	90	Post-emergence action against Echinochloa crus-galli (ECHCG) [15]: 90%; Post-emergence action against Poa annua (POAAN) ([16]; 1280 g/ha): 100%; Post-emergence action against Amaranthus retroflexus (AMARE) ([17]; dosage 320 g/ha): 100%; Pre-emergence action against Poa annua (POAAN) ([4]; dosage 320 g/ha): 100%
FC(F)(F)c1ccc(-c2ccccc2Oc2ccc(Cl)cn2)nc1 [Example 1-67]	100	100	90	100	100	–	100	–	100	100	100	very good herbicidal activity	very good herbicidal activity	100	90	100	100	100	100	100	Post-emergence action against Poa annua (POAAN) ([16]; 1280 g/ha): 100%; Post-emergence action against Abutilon theophrasti (ABUTH) ([1]; 320 g/ha): 90%; Post-emergence action against Alopecurus myosuroides (ALOMY) [19]: 90%
Cc1ccc(-c2ccccc2Oc2ccc(Cl)cn2)nc1 [Example 1-80]	100	100	–	90	100	100	100	90	–	–	100	very good herbicidal activity	very good herbicidal activity	–	–	100	100	–	100	100	–
